Measurements from patent US20240246940A1, “HETEROARYL DERIVATIVE COMPOUND AND USE THEREOF” (VORONOI INC., priority 2021, published 2024).
Read-outs that look alike come from different tables or passages of the source.

What was measured:
[1] = tested on: HaCaT cells (EGFR expressing cell line); assay: HaCaT cell proliferation inhibitory activity (CellTiter-Glo, 72 hours); type: cell-based
Method in brief: (§1)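 Luminescent viability read-out, growth % vs control → GI50, n=3. Seeding: SK-BR-3/BT-474 5000 cells, 48 h pre-plating; N-87 5000, 24 h; HaCaT 3000, 24 h. Dose ranges: 0.2 nM–10 μM (SK-BR-3, BT-474; 3-fold), […]–5 μM (N-87; 5-fold), 0.8 nM–45 μM (HaCaT; 3-fold).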

[2] = tested on: SK-BR-3 cells (HER2 overexpressing cell line); assay: SK-BR-3 cell proliferation inhibitory activity (CellTiter-Glo, 120 hours); type: cell-based
Method in brief: as §1

Compound	GI50 ([1]; Homo sapiens) [µM]	GI50 ([2]; Homo sapiens) [µM]	GI50 [1] [µM]	GI50 [2] [µM]
C=CC(=O)N1CCC(Oc2cc3c(Nc4cc(-c5ccnn5C)ccc4OC)ncnc3cc2OC)CC1 [Example 75, 1-(4-((7-methoxy-4-((2-methoxy-5-(1-methyl-1H-pyrazol-5-yl)phenyl)amino)quinazolin-6-yl)oxy)piperidin-1-yl)prop-2-en-1-one]	> 1	0.15 to 1	–	–
C=CC(=O)N1CCC(Oc2cc3c(Nc4cc(-c5cncs5)ccc4OC)ncnc3cc2OC)CC1 [Example 77, 1-(4-((7-methoxy-4-((2-methoxy-5-(thiazol-5-yl)phenyl)amino)quinazolin-6-yl)oxy)piperidin-1-yl)prop-2-en-1-one]	0.15 to 1	0.15 to 1	–	–
C=CC(=O)N1CCC(Oc2cc3c(Nc4cc(-c5sccc5C)ccc4OC)ncnc3cc2OC)CC1 [Example 82, 1-(4-((7-methoxy-4-((2-methoxy-5-(3-methylthiophen-2-yl)phenyl)amino)quinazolin-6-yl)oxy)piperidin-1-yl)prop-2-en-1-one]	≤ 0.15	≤ 0.15	–	–
C=CC(=O)N1CCC(Oc2cc3c(Nc4cc(-c5cc(C)cs5)ccc4OC)ncnc3cc2OC)CC1 [Example 83, 1-(4-((7-methoxy-4-((2-methoxy-5-(4-methylthiophen-2-yl)phenyl)amino)quinazolin-6-yl)oxy)piperidin-1-yl)prop-2-en-1-one]	0.15 to 1	0.15 to 1	–	–
C=CC(=O)N1CCC(Oc2cc3c(Nc4cc(-c5ccoc5C)ccc4OC)ncnc3cc2OC)CC1 [Example 84, 1-(4-((7-methoxy-4-((2-methoxy-5-(2-methylfuran-3-yl)phenyl)amino)quinazolin-6-yl)oxy)piperidin-1-yl)prop-2-en-1-one]	≤ 0.15	≤ 0.15	–	–
C=CC(=O)N1CCC(Oc2cc3c(Nc4cc(-c5cnoc5)ccc4OC)ncnc3cc2OC)CC1 [Example 85, 1-(4-((4-((5-(isoxazol-4-yl)-2-methoxyphenyl)amino)-7-methoxy-quinazolin-6-yl)oxy)piperidin-1-yl)prop-2-en-1-one]	≤ 0.15	≤ 0.15	–	–
C=CC(=O)N1CCC(Oc2cc3c(Nc4cc(-c5cccs5)c(C)cc4OC)ncnc3cc2OC)CC1 [Example 95, 1-(4-((7-methoxy-4-((2-methoxy-4-methyl-5-(thiophen-2-yl))amino)quinazolin-6-yl)oxy)piperidin-1-yl)prop-2-en-1-one]	≤ 0.15	0.15 to 1	–	–
C=CC(=O)N1CCC(Oc2cc3c(Nc4cc(-c5ccco5)c(C)cc4OC)ncnc3cc2OC)CC1 [Example 96, 1-(4-((4-((5-(furan-2-yl)-2-methoxy-4-methylphenyl)amino)-7-methoxy-quinazolin-6-yl)oxy)piperidin-1-yl)prop-2-en-1-one]	≤ 0.15	0.15 to 1	–	–
C=CC(=O)N1CCC(Oc2cc3c(Nc4cc(-c5ccco5)cnc4OC)ncnc3cc2OC)CC1 [Example 104, 1-(4-((4-((5-(furan-2-yl)-2-methoxy-pyridin-3-yl)amino)-7-methoxy-quinazolin-6-yl)oxy)piperidin-1-yl)prop-2-en-1-one]	≤ 0.15	≤ 0.15	–	–
C=CC(=O)N1CCC(Oc2cc3c(Nc4cc(-c5ccco5)ncc4OC)ncnc3cc2OC)CC1 [Example 105, 1-(4-((4-((2-(furan-2-yl)-5-methoxypyridin-4-yl)amino)-7-methoxy-quinazolin-6-yl)oxy)piperidin-1-yl)prop-2-en-1-one]	≤ 0.15	≤ 0.15	–	–
C=CC(=O)N1CCC(Oc2cc3c(Nc4cc(-c5ccco5)ccc4OC)ncnc3cc2OC)C(F)(F)C1 (stereo not drawn) [Example 111, 1-(3,3-difluoro-4-((4-((5-(furan-2-yl)-2-methoxyphenyl)amino)-7-methoxy-quinazolin-6-yl)oxy)piperidin-1-yl)prop-2-en-1-one]	≤ 0.15	≤ 0.15	–	–
C=CC(=O)N1CCC(Oc2cc3c(Nc4cc(-c5ccco5)ccc4OC)ncnc3cc2OC)CC1C(F)(F)F (stereo not drawn) [Example 114, 1-(4-((4-((5-(furan-2-yl)-2-methoxyphenyl)amino)-7-methoxy-quinazolin-6-yl)oxy)-2-(trifluoro-methyl)piperidin-1-yl)prop-2-en-1-one]	–	–	≤ 0.15	0.15 to 1
C=CC(=O)N1CC2CC1CC2Oc1cc2c(Nc3cc(-c4ccco4)ccc3OC)ncnc2cc1OC (stereo not drawn) [Example 115, 1-(5-((4-((5-(furan-2-yl)-2-methoxyphenyl)amino)-7-methoxy-quinazolin-6-yl)oxy)-2-azabicyclo[2. 2.1]heptan-2-yl)prop-2-en-1-one]	≤ 0.15	0.15 to 1	–	–
C=CC(=O)N1CCC(Oc2cc3c(Nc4cc(-c5ccco5)ccc4OC(F)(F)F)ncnc3cc2OC)CC1 [Example 116, 1-(4-((4-((5-(furan-2-yl)-2-(trifluoro-methoxy)phenyl)amino)-7-methoxy-quinazolin-6-yl)oxy)piperidin-1-yl)prop-2-en-1-one]	≤ 0.15	0.15 to 1	–	–
C=CC(=O)N1CCC(Oc2cc3c(Nc4cc(-c5cccs5)ccc4OCC)ncnc3cc2OC)CC1 [Example 117, 1-(4-((4-((2-ethoxy-5-(thiophen-2-yl)phenyl)amino)-7-methoxy-quinazolin-6-yl)oxy)piperidin-1-yl)prop-2-en-1-one]	≤ 0.15	≤ 0.15	–	–
C=CC(=O)N1CCC(Oc2cc3c(Nc4cc(-c5ccco5)ccc4OCC)ncnc3cc2OC)CC1 [Example 118, 1-(4-((4-((2-ethoxy-5-(furan-2-yl)phenyl)amino)-7-methoxy-quinazolin-6-yl)oxy)piperidin-1-yl)prop-2-en-1-one]	≤ 0.15	≤ 0.15	–	–
COc1ccc(-c2cccs2)cc1Nc1ncnc2cc(OC)c(OC3CCN(C(=O)/C=C/CN(C)C)CC3)cc12 [Example 119, (E)-4-(dimethylamino) 1-(4-((7-methoxy-4-((2-methoxy-5-(thiophen-2-yl)phenyl)amino)quinazolin-6-yl)oxy)piperidin-1-yl)but-2-en-1-one]	≤ 0.15	0.15 to 1	–	–
C=C(CN(C)C)C(=O)N1CCC(Oc2cc3c(Nc4cc(-c5ccco5)ccc4OC)ncnc3cc2OC)CC1 [Example 121, 2-((dimethylamino)methyl)-1-(4-((4-((5-(furan-2-yl)-2-methoxyphenyl)amino)-7-methoxy-quinazolin-6-yl)oxy)piperidin-1-yl)prop-2-en-1-one]	≤ 0.15	> 1	–	–
C=CC(=O)N1CCC(Oc2cc3c(Nc4cc(-c5ccco5)ccc4OC)ccnc3cc2OC)CC1 [Example 125, 1-(4-((4-((5-(furan-2-yl)-2-methoxyphenyl)amino)-7-methoxy-quinolin-6-yl)oxy)piperidin-1-yl)prop-2-en-1-one]	0.15 to 1	0.15 to 1	–	–
C=CC(=O)N1CC(Oc2cc3c(Nc4cc(-c5cccc6ncnn56)ccc4OC)ncnc3cc2OC)C1 [Example 128, 1-(3-((4-((5-([1,2,4]triazolo[1,5-a]pyridin-5-yl)-2-methoxyphenyl)amino)-7-methoxy-quinazolin-6-yl)oxy)azetidin-1-yl)prop-2-en-1-one]	0.15 to 1	0.15 to 1	–	–
C=CC(=O)N1CCC(Oc2cc3c(Nc4cc(-c5cnco5)ccc4OC)ncnc3cc2OC)CC1 [Example 130, 1-(4-((7-methoxy-4-((2-methoxy-5-(oxazol-5-yl)phenyl)amino)quinazolin-6-yl)oxy)piperidin-1-yl)prop-2-en-1-one]	0.15 to 1	0.15 to 1	–	–
